This is an account of results in patent US20180161314A1, “Methods for Treating Hyperuricemia and Related Diseases” (Ardea Biosciences, Inc., priority 2010, published 2018).

Values joined by “and” are separate entries in the source; they are usually repeats but may differ in a detail not shown here. Equal values may be shown once. A value given as a limit tells only on which side of the number the result lay.

Data set [1] relates to hyperuricemic subjects with symptomatic gout. The data set is described as follows: Pilot study of drug 1 versus placebo and open-label allopurinol in hyperuricemic subjects with symptomatic gout (Examples 1, 2, 20). In kind it is in vivo, human. The method, then: Study Objectives • To compare the proportion of subjects whose sUA level is <6.0 mg/dL following 2 weeks of continuous treatment with drug 1 compared to allopurinol and placebo. • To evaluate the percent reduction from baseline in sUA levels following 2 weeks of continuous treatment with drug 1 in combination with allopurinol. • To evaluate the proportion of subjects whose sUA levels are <6.0 mg/dL, <5.0 mg/dL and <4.0 mg/dL at each visit. • To evaluate the absolute and percent reduction from baseline in sUA levels at each visit. • To evaluate the maximum percent reduction in sUA levels from baseline during the entire treatment period. • To evaluate percent change in 24-hour urine uric acid level from baseline to Day 15. • To evaluate the safety and tolerability of drug 1 in subjects with gout. • To evaluate the pharmacokinetics, safety and tolerability of drug 1 in combination with allopurinol in subjects with gout.
A randomized, double-blind, placebo-controlled, dose titration, safety and pharmacodynamics pilot study, in approximately 26 hyperuricemic subjects with symptomatic gout enrolled at 2-3 investigational sites in N America, of: • drug 1 versus placebo and open-label allopurinol (Cohort 1); and • drug 1 in combination with allopurinol versus continued allopurinol alone (Cohort 2)
Subjects are randomized 7 days prior to Day 1 in a double-blind fashion to receive drug 1, drug 1 matching placebo, or open-label allopurinol (Cohort 1) or drug 1 or drug 1 matching placebo in combination with allopurinol (Cohort 2).
To reduce the incidence of gout flares, colchicine 0.6 mg qd is administered to all subjects starting 14 days prior to the Baseline (Day 1) visit. Subjects continue colchicine administration throughout the Treatment Period, discontinuing at the End of Study visit (one week after the last dose of study medication).
Cohort 1 approx 20 subjects randomized in 2:1:1 ratio treatment groups—drug 1:placebo:allopurinol.
Subjects randomized to double-blind treatment: • approx 10 subjects randomized to receive drug 1 200 mg qd (4 drug 1 50 mg capsules/day) for one week, followed by drug 1 400 mg qd (8 drug 1 50 mg capsules/day) for one week. • 5 subjects randomized to receive drug 1 matching placebo qd for 2 weeks (week 1-4 drug 1 matching placebo capsules; week 2-8 drug 1 matching placebo capsules)
Subjects randomized to open-label treatment: • 5 subjects randomized to receive allopurinol 300 mg tablets qd for 2 weeks Cohort 2 approx 6 subjects randomized in 5:1 ratio treatment groups—drug+allopurinol:placebo+allopurinol
For Cohorts 1 and 2, subjects randomized to double-blind treatment take drug 1 or drug 1 matching placebo every 24 hours (±1 h) (morning dose) for a period of 2 weeks. For Cohort 1, subjects randomized to open-label treatment take allopurinol every 24 hours (±1 h) (morning dose) for a period of 2 weeks.
Subjects are requested to then drink approximately 240 mL of water 1-2 hours after dosing.
1. Male or post-menopausal or surgically sterile female. 2. 18-75 years of age. 3. Hyperuricemic, defined as: Cohort 1: Screening serum uric acid is ≥8 mg/dL Cohort 2: Screening serum uric acid is ≥10 mg/dL 4. Subject meets one or more of the 1977 American Rheumatism Association (ARA) criteria for the diagnosis of acute arthritis of primary gout. 5. Subject is willing and able to give informed consent and adhere to visit/protocol schedules.
Blood samples (4.5 mL) are collected and sUA levels determined at Screening (repeated as necessary prior to Day 1), Baseline (Day 1) (1 hour and 8 hours post-dose), Day 8 (trough, 1 hour and 8 hours post-dose), Day 9 (24 hours after Day 8 dose), and Day 14 (trough and 8 hours post-dose), Day 15 and End of Study. An additional sUA level is obtained on Day 7 for Cohort 2 subjects prior to the first dose of allopurinol.
Primary pharmacodynamics parameter is the proportion of subjects with serum uric acid <6.0 mg/dL following 2 weeks of treatment. […]

For a further data set, the target named is T1, PNP (Homo sapiens, UniProt P00491).
T1 sequence (P00491 1-289): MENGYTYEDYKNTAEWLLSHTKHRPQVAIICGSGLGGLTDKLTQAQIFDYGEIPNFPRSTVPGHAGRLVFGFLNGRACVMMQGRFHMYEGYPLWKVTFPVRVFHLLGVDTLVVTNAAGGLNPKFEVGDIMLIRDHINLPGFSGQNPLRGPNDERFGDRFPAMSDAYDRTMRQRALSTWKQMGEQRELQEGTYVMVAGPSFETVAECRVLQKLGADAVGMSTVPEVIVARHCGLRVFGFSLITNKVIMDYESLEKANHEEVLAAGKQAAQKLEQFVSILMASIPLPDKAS
The following applies: cited from earlier work.

The conditions of data set [2]: in clinical studies; cited from earlier work.
The mark [3] stands for this setting: Cohort 1, preliminary safety summary.

In the case of `O=C(O)CSc1nnc(Br)n1-c1ccc(C2CC2)c2ccccc12` [Drug 1, Sodium 2-(5-bromo-4-(4-cyclopropylnaphthalen-1-yl)-4H-1,2,4-triazol-3-ylthio)acetate], in data set [1] (setting [3]), the “ECG findings including interval measurements” value was “No clinically significant ECG findings” and the “Tolerability (SAEs, deaths, discontinuations due to adverse events)” value is reported as “well tolerated in this study, with no SAEs, deaths or discontinuations due to adverse events”. For the same molecule, in data set [1] (Cohort 1, Day 14, responders/subjects, drug 1 200 mg qd 1 week then 400 mg qd 1 week, allopurinol 300 mg qd 2 weeks), the “Responders Day 14 (those with sUA <6 mg/dL)” value was 6/10^2. Also, in data set [1] (Day 14, two non-responders without baseline sUA above 11 mg/dL), the “sUA at Day 14 of individual patients not below 6 mg/dL” value was 6.2 mg/dL and 6.3 mg/dL. In data set [1] (after the first week of treatment (200 mg qd)), the “Reduction in serum urate levels, on average” value is on record as 40%. Moreover, in data set [1] (baseline CrCl 53 ml/min), the “Reduction in sUA, patient with the lowest baseline CrCl” value came to 40%. In data set [1] (by the end of week 2, mild to moderate diminished renal function), the “Reduction in sUA, all patients with renal impairment” value was at least 30%. For the same molecule, in data set [1] (compared with Phase 1 healthy volunteer studies), the “Plasma levels in gout patients” value is “generally consistent with those observed in Phase 1 healthy volunteer studies”. For the same molecule, the “Linear trend of sUA reduction versus creatinine clearance” value in data set [1] (day 14, 400 mg qd, Cockcroft-Gault and MDRD methods) is reported as “increasing benefit with lower CrCL”. Also, the “Increase in serum creatinine (SCr), Grade 1 AE” value in data set [1] (two patients while on 400 mg QD, SCr fell back to normal limits after study) was above 30%. For the same molecule, the “Inhibition of PNP” value on PNP is listed as “does not significantly inhibit”. Besides, in data set [2], the Route of excretion result is “preferentially excreted through the kidney, reaching high concentrations in urine”.
